Read-outs that look alike come from different tables or passages of the source.
Tests used:
[1] = test system: IGROV1 (ovary cancer) cell line; settings: comparative data, hybrids without piperazine; read-out: GI50 IGROV1 (hybrides with out piperazine); cited from earlier work
[2] = test system: SNB-19 cell line; settings: comparative data, hybrids without piperazine; read-out: GI50 SNB-19 (hybrides with out piperazine); cited from earlier work
[3] = test system: HOP 62 (lung cancer) cell line; settings: comparative data, hybrids without piperazine; read-out: GI50 HOP 62 (hybrides with out piperazine); cited from earlier work
[4] = test system: MCF 7 (breast cancer) cell line; settings: comparative data, hybrids without piperazine; read-out: GI50 MCF 7 (hybrides with out piperazine); cited from earlier work
[5] = test system: duplex-form calf thymus DNA (CT-DNA); settings: comparative data, hybrids without piperazine, cited from earlier work
[6] = test system: A 549 (lung cancer) cell line; settings: comparative data, hybrids without piperazine; read-out: GI50 A 549 (hybrides with out piperazine); cited from earlier work
[7] = test system: Colo 205 (colon cancer) cell line; settings: comparative data, hybrids without piperazine; read-out: GI50 Colo 205 (hybrides with out piperazine); cited from earlier work
[8] = test system: A498 cell line; settings: comparative data, hybrids without piperazine; read-out: GI50 A498 (hybrides with out piperazine); cited from earlier work
[9] = test system: PC 3 (prostate cancer) cell line; settings: comparative data, hybrids without piperazine; read-out: GI50 PC 3 (hybrides with out piperazine); cited from earlier work
[10] = test system: eight tumour cells lines derived from seven cancer types; assay: In vitro anticancer activity, SRB assay, panel of eight cell lines; assay type: cell-based; settings: Homo sapiens, range over the eight cell lines per compound; read-out: GI50 range against cancer cell lines
Method: (§1) Anticancer activity: In vitro biological activity studies were carried out at the Advance Center for Treatment Research & Education in Cancer (ACTREC), Navi Mumbai.
(§2) The compounds were evaluated for in vitro anticancer activity against eight tumour cells lines derived from seven cancer types (non-small-cell lung, colon, oral, cervix, ovarian, prostate, and breast cancer) as shown in Table 2. For each compound, dose response curves for each cell line were measured at a minimum of five concentrations at 10 fold dilutions. A protocol of 48 h continuous drug exposure was used and a sulforhodamine B (SRB) protein assay was used to estimate cell viability or growth. The concentration causing 50% cell growth inhibition (GI50) and 50% cell death (LC50, −50% growth) compared with the control was calculated. Compounds 9a-9l have been evaluated for their in vitro cytotoxicity in eight cell lines from seven human cancer types of lung (Hop-62, A-549) colon (COLO-205) cervix (Si—Ha), ovary (A-2780), prostate (PC3) breast (MCF7), oral (KB). The results are expressed as percent of cell growth determined relative to that of untreated control cells (Table-8 and table-9).

[11] = test system: Colo 205 (colon cancer) cell line; assay: cells; assay type: cell-based; settings: Homo sapiens, COLO 205, 48 h; for GI50: read-out: GI50 Colo 205, 48 h drug exposure, SRB, mean of three determinations; for CC50: read-out: LC50 Colo 205
Method: as §1, §2

[12] = test system: A 549 (lung cancer) cell line; assay: cells; assay type: cell-based; settings: Homo sapiens, A549, 48 h; for GI50: read-out: GI50 A 549, 48 h drug exposure, SRB, mean of three determinations; for CC50: read-out: LC50 A 549, 50% cell death, 48 h drug exposure, SRB
Method: as §1, §2

[13] = test system: PC 3 (prostate cancer) cell line; assay: cells; assay type: cell-based; settings: Homo sapiens, 48 h; for GI50: read-out: GI50 PC 3; for CC50: read-out: LC50 Pc 3, 50% cell death, 48 h drug exposure, SRB
Method: as §1, §2

[14] = test system: SiHa (cervix cancer) cell line; assay: cells; assay type: cell-based; settings: Homo sapiens, SiHa, 48 h; for GI50: read-out: GI50 SiHa, 48 h drug exposure, SRB, mean of three determinations; for LC50 (concentration causing 50% cell death): read-out: LC50 SiHa, 50% cell death, 48 h drug exposure, SRB
Method: as §1, §2

[15] = test system: MCF 7 (breast cancer) cell line; assay: cells; assay type: cell-based; settings: Homo sapiens, MCF7, 48 h; for GI50: read-out: GI50 MCF 7; for LC50 (concentration causing 50% cell death): read-out: LC50 MCF 7, 50% cell death, 48 h drug exposure, SRB
Method: as §1, §2

[16] = test system: HOP 62 (lung cancer) cell line; assay: cells; assay type: cell-based; settings: Homo sapiens, HOP-62, 48 h; for GI50: read-out: GI50 HOP 62, 48 h drug exposure, SRB, mean of three determinations; for LC50: read-out: LC50 HOP 62, 50% cell death, 48 h drug exposure, SRB
Method: as §1, §2

[17] = test system: A 2780 (ovary cancer) cell line; assay: cells; assay type: cell-based; settings: Homo sapiens, A2780, 48 h; for GI50: read-out: GI50 A 2780, 48 h drug exposure, SRB, mean of three determinations; for CC50: read-out: LC50 A 2780, 50% cell death, 48 h drug exposure, SRB
Method: as §1, §2

[18] = test system: duplex-form calf thymus DNA (CT-DNA); assay: Thermal denaturation studies with calf thymus DNA (DNA binding affinity); settings: [PBD]:[DNA] 1:5, CT-DNA 100 μM, ligand 20 μM, pH 7.00
Method: Compounds have been subjected to thermal denaturation studies with duplex-form calf thymus DNA (CT-DNA) using an modification of a reported procedure (Newman, M. S. Carcinog-compr. Surv. 1976,1, 203; (b) Hecht, S. S.; Loy, M.; Hoffman, Carcinog-compr. Surv. 1976, 1, 325). Working solutions in aqueous buffer (10 mM NaH2PO4/Na2HPO4, 1 mM Na2EDTA, pH 7.00+0.01) containing CT-DNA (100 μm in phosphate) and the PBD (20 μm) have been prepared by addition of concentrated PBD solutions in DMSO to obtain a fixed [PBD]/[DNA] molar ratio of 1:5. The DNA-PBD solutions have been incubated at 37° C. for 0 and 18 h prior to analysis. Samples have been monitored at 260 using a Beckman DU-800 spectrophotometer fitted with high performance temperature controller, and heated at 1° C. min^−1 in the 40-110° C. range. DNA helix→coil transition temperatures (Tm) have been obtained from the maxima in the d(A260)/dT derivative plots. Drug-induced alterations in DNA melting behavior are given by: ΔTm=Tm(DNA+PBD)−Tm(DNA alone), where the Tm value for the PBD-free CT-DNA is 69.1±0.01.
The DNA binding activity for these novel C8-linked benzothiazole, benzoxazole-PBD hybrids has been examined by thermal denaturation studies using calf thymus (CT) DNA. […] The data for the compounds 9a-n is included in Table 7 for comparison.

[19] = test system: KB (oral cancer) cell line; assay: In vitro anticancer activity, SRB assay, KB; assay type: cell-based, human; settings: Homo sapiens, 48 h; for GI50: read-out: GI50 KB, 48 h drug exposure, SRB, mean of three determinations; for CC50: read-out: LC50 KB, 50% cell death, 48 h drug exposure, SRB
Method: as §1, §2

[20] = test system: MCF-7 (breast cancer) xenografts; assay: In vivo efficacy study on xenograft MCF-7; settings: MCF-7 xenograft, scid male mice; compared with positive control adriamycin
Source text: (§3) References may be made to patent “WO/2008/099416” wherein Benzothiazole or benzoxazole linked Pyrrolo[2,1-c][1,4] benzodiazepine hybrid as anticancer agent has been reported. References may be made to patent “U.S. Pat. No. 6,979,684” wherein Pyrrolo[2,1-c][1,4] benzodiazepine and naphthalimide are linked through piperazine moiety. The linking of pharmacophore like napthalimide and piperazine to pyrroloberizodiazepine can not be considered similar to a pharmacophore like benzothiazole as each pharmacophore is known for certain biological property. In the present investigation the benzothiaole and piperazine subunits are considered to be a different heterocyclic moieties compared to the earlier reported pharmacophores like napthalimide. Therefore, this structural variation of benzothiazole with piperazine moiety has been utilized for DNA binding aspect. Keeping this in mind, these new conjugates have been designed and synthesized to further improve the anticancer activity including the DNA binding affinity. The anticancer activity may not depend on the DNA binding activity. […] Moreover, one of the potent conjugate 9f (IICT-302) of this series has been evaluated for its in vivo efficacy studies (in scid male mice) against MCF-7 (breast cancer) and PC-3 (prostate cancer) xenografts by using adriamycin as a positive control.
FIG. 2 represents in vivo efficacy study of compound 9f on xenograft MCF-7.
(§4) The structural variation of benzothiazole/benzoxazole with piperazine moiety has been utilized for DNA binding aspect. Moreover, one of the potent conjugate 9f (IICT-302) of this series has been evaluate for its in vivo efficacy studies against MCF-7 (breast cancer) and PC-3 (prostate cancer) by using Adriamycin as positive control.

[21] = test system: PC-3 (prostate cancer) xenografts; assay: In vivo efficacy study on xenograft PC3; settings: PC-3 xenograft, scid male mice; compared with positive control adriamycin
Source text: as §3
FIG. 3 represents in vivo efficacy study of compound 9f on xenograft PC3.
as §4

| SMILES | GI50 [1] [µM] | GI50 [2] [µM] | GI50 [3] [µM] | GI50 [4] [µM] | ΔTm after incubation at 37° C. for 0 h (PBD hybrids with out piperizine) [5] [°C] | ΔTm after incubation at 37° C. for 18 h (PBD hybrids with out piperizine) [5] [°C] | GI50 [6] [µM] | GI50 [7] [µM] | GI50 [8] [µM] | GI50 [9] [µM] | GI50 [10] [µM] | GI50 [11] [µM] | CC50 [11] [µM] | GI50 [12] [µM] | CC50 [12] [µM] | GI50 [13] [µM] | CC50 [13] [µM] | GI50 [14] [µM] | LC50 (concentration causing 50% cell death) [14] [µM] | GI50 [15] [µM] | further results |
| --- | --- | --- | --- | --- | --- | --- | --- | --- | --- | --- | --- | --- | --- | --- | --- | --- | --- | --- | --- | --- | --- |
| COc1cc2c(cc1OCCCCOc1ccc(-c3nc4ccccc4s3)cc1)N=C[C@@H]1CCCN1C2=O [Compound 20a] | 2.42 | 1.52 | 0.406 | 0.32 | 0.5 | 0.5 | 2.63 | 0.34 | 2.02 | 0.29 |  |  |  |  |  |  |  |  |  |  |  |
| COc1cc(-c2nc3ccccc3s2)ccc1OCCCCCOc1cc2c(cc1OC)C(=O)N1CCC[C@H]1C=N2 [Compound 20d] | 0.344 | 0.21 | 0.04 | 0.01 | 6.2 | 6.3 | 0.24 | 0.06 | 0.17 | 0.04 |  |  |  |  |  |  |  |  |  |  |  |
| COc1cc2c(cc1OCCCCCOc1ccc(-c3nc4ccccc4s3)cc1)N=C[C@@H]1CCCN1C2=O [Compound 20c] | 2.69 | 2.94 | 0.412 | 0.33 | 4.1 | 4.3 | 2.59 | 0.38 | 2.26 | 0.23 |  |  |  |  |  |  |  |  |  |  |  |
| COc1cc(-c2nc3ccccc3s2)ccc1OCCCCOc1cc2c(cc1OC)C(=O)N1CCC[C@H]1C=N2 [Compound 20b] | 3.06 | 1.61 | 1.41 | 0.4 | 0.5 | 0.5 | 2.66 | 0.69 | 1.6 | 0.41 |  |  |  |  |  |  |  |  |  |  |  |
| COc1cc(-c2nc3ccccc3s2)ccc1OCCCCN1CCN(CCCCOc2cc3c(cc2OC)C(=O)N2CCC[C@H]2C=N3)CC1 [Compound 9f, 7-Methoxy-8-[4-(4-{4-[4(1,3-benzothiazol-2-yl)-2-methoxyphenoxy]butyl}piperazin-1-yl)butyl]oxy-(11aS)-1,2,3,11a-tetrahydro-5H-pyrrolo[2,1-c][1,4]benzodiazepin-5-one] |  |  |  |  |  |  |  |  |  |  | < 0.01 | < 0.01 | > 100 | < 0.01 | > 100 | < 0.01 | 2.4 | < 0.01 | 2.5 | < 0.01 | LC50 (concentration causing 50% cell death) [15]: < 0.01 µM; GI50 [16]: < 0.01 µM; LC50 [16]: 2.4 µM; GI50 [17]: < 0.01 µM; CC50 [17]: 0.089 µM; ΔTm after incubation at 37° C. for 0 h [18]: 15.5 °C; ΔTm after incubation at 37° C. for 18 h [18]: 15.9 °C; GI50 [19]: < 0.01 µM; CC50 [19]: 0.18 µM; RTV in in vivo efficacy study [20]: good RTV; survival data in in vivo efficacy study [20]: good survival data; toxicity in in vivo efficacy study [20]: less toxicity; RTV in in vivo efficacy study [21]: good RTV; survival data in in vivo efficacy study [21]: good survival data; toxicity in in vivo efficacy study [21]: less toxicity |
| COc1cc2c(cc1OCCCN1CCN(CCCOc3cccc(-c4nc5ccccc5s4)c3)CC1)N=C[C@@H]1CCCN1C2=O [Compound 9d, 7-Methoxy-8-[3-(4-{3-[3(1,3-benzothiazol-2-yl)-phenoxy]propyl}piperazin-1-yl)propyl]oxy-(11aS)-1,2,3,11a-tetrahydro-5H-pyrrolo[2,1-c][1,4]benzodiazepin-5-one] |  |  |  |  |  |  |  |  |  |  | ≤ 0.12 | 0.11 | > 100 | < 0.01 | > 100 | < 0.01 | 28 | 0.12 | 26 | 0.01 | LC50 (concentration causing 50% cell death) [15]: 2.1 µM; GI50 [16]: < 0.01 µM; LC50 [16]: 27 µM; GI50 [17]: 0.099 µM; CC50 [17]: 2.4 µM; ΔTm after incubation at 37° C. for 0 h [18]: 11.2 °C; ΔTm after incubation at 37° C. for 18 h [18]: 11.5 °C; GI50 [19]: 0.11 µM; CC50 [19]: 2.3 µM |

— patent US8637665B2, “Pyrrolo[2,L-C][L,4]benzodiazepine-benzothiazole or benzoxazole conjugates linked through piperazine moiety and process for the preparation thereof” (priority 2010, dated 2014)
